Structures can show the parent of a compound that is named as a salt.
Cc1nc(NC(=O)c2nnn(Cc3ccc(Cl)c(Cl)c3)c2C)sc1C(=O)N1CCN(C)CC1 [Example 25, 1-[(3,4-Dichlorophenyl)methyl]-5-methyl-N-{4-methyl-5-[(4-methyl-1-piperazinyl)carbonyl]-1,3-thiazo1-2-yl}-1H-1,2,3-triazole-4-carboxamide]
melting point: 216.9 °C

Cc1nc(NC(=O)c2nnn(Cc3ccc(Cl)c(Cl)c3)c2C)sc1C(=O)NC(C)C [Example 20, 1-[(3,4-Dichlorophenyl)methyl]-5-methyl-N-(4-methyl-5-{[(1-methylethyl)amino]carbonyl}-1,3-thiazol-2-yl)-1H-1,2,3-triazole-4-carboxamide]
melting point: 204.4 °C

Cc1nc(NC(=O)c2cn(Cc3ccc(Cl)c(Cl)c3)nn2)sc1C(N)=O [Example 37, N-[5-(Aminocarbonyl)-4-methyl-1,3-thiazol-2-yl]-1-[(3,4-dichlorophenyl)methyl]-1H-1,2,3-triazole-4-carboxamide]
melting point: 283 °C

COc1ccc2nc(NC(=O)c3nnn(Cc4ccc(Cl)c(Cl)c4)c3C)sc2c1
melting point: 225 °C

CCOC(=O)c1nnc(NC(=O)c2nnn(Cc3ccc(Cl)c(Cl)c3)c2C)s1 [Example 3, Ethyl 5-[({1-[(3,4-dichlorophenyl)methyl]-5-methyl-1H-1,2,3-triazol-4-yl}carbonyl)amino]-1,3,4-thiadiazole-2-carboxylate]
melting point: 203.8 °C

NC(=O)c1cnc(NC(=O)c2cn(Cc3ccc(Cl)c(Cl)c3)nn2)s1 [Example 36, N-[5-(Aminocarbonyl)-1,3-thiazol-2-yl]-1-[(3,4-dichlorophenyl)methyl]-1H-1,2,3-triazole-4-carboxamide]
melting point: 280.9 °C

Cc1c(C(=O)Nc2ncc(C=O)s2)nnn1Cc1ccc(Cl)c(Cl)c1 [Example 5, 1-[(3,4-Dichlorophenyl)methyl]-N-(5-formyl-1,3-thiazol-2-yl)-5-methyl-1H-1,2,3-triazole-4-carboxamide]
melting point: > 260 °C

O=C(Nc1ncc(C(=O)NCCO)s1)c1cn(Cc2ccc(Cl)c(Cl)c2)nn1 [Example 35, 1-[(3,4-Dichlorophenyl)methyl]-N-(5-{[(2-hydroxyethyl)amino]carbonyl}-1,3-thiazol-2-yl)-1H-1,2,3-triazole-4-carboxamide]
melting point: 274.8 °C

COC(=O)c1ccnc(NC(=O)c2nnn(Cc3ccc(Cl)c(Cl)c3)c2C)c1 [Example 15, Methyl 2-[({1-[(3,4-dichlorophenyl)methyl]-5-methyl-1H-1,2,3-triazol-4-yl}carbonyl)amino]-4-pyridinecarboxylate]
melting point: 172 °C

CCNC(=O)c1sc(NC(=O)c2nnn(Cc3ccc(Cl)c(Cl)c3)c2C)nc1C [Example 21, 1-[(3,4-Dichlorophenyl)methyl]-N-{5-[(ethylamino)carbonyl]-4-methyl-1,3-thiazol-2-yl}-5-methyl-1H-1,2,3-triazole-4-carboxamide]
melting point: 194.1 °C

Cc1c(C(=O)Nc2ncc(C(=O)O)o2)nnn1Cc1ccc(Cl)c(Cl)c1 [Example 17, 2-[({1-[(3,4-Dichlorophenyl)methyl]-5-methyl-1H-1,2,3-triazol-4-yl}carbonyl)amino]-1,3-oxazole-5-carboxylic acid]
melting point: 201.8 °C

Cc1c(C(=O)Nc2nnc(CO)s2)nnn1Cc1ccc(Cl)c(Cl)c1 [Example 42, 1-[(3,4-Dichlorophenyl)methyl]-N-[5-(hydroxymethyl)-1,3,4-thiadiazol-2-yl]-5-methyl-1H-1,2,3-triazole-4-carboxamide]
melting point: 153.6 °C

Cc1c(C(=O)Nc2ncc(CO)s2)nnn1Cc1ccc(Cl)c(Cl)c1 [Example 39, 1-[(3,4-Dichlorophenyl)methyl]-N-[5-(hydroxymethyl)-1,3-thiazol-2-yl]-5-methyl-1H-1,2,3-triazole-4-carboxamide]
melting point: 170.5 °C

CCOC(=O)Cc1nc(NC(=O)c2nnn(Cc3ccc(Cl)c(Cl)c3)c2C)sc1C [Example 12, Ethyl {2-[({1-[(3,4-dichlorophenyl)methyl]-5-methyl-1H-1,2,3-triazol-4-yl}carbonyl)amino]-5-methyl-1,3-thiazol-4-yl}acetate]
melting point: 125 °C

CCNC(=O)c1sc(NC(=O)c2cn(Cc3ccc(Cl)c(Cl)c3)nn2)nc1C [Example 33, 1-[(3,4-Dichlorophenyl)methyl]-N-{5-[(ethylamino)carbonyl]-4-methyl-1,3-thiazo1-2-yl}-1H-1,2,3-triazole-4-carboxamide]
melting point: 210.6 °C

COCCNC(=O)c1sc(NC(=O)c2nnn(Cc3ccc(Cl)c(Cl)c3)c2C)nc1C [Example 26, 1-[(3,4-Dichlorophenyl)methyl]-5-methyl-N-[4-methyl-5-({[2-(methyloxy)ethyl]amino}carbonyl)-1,3-thiazol-2-yl]-1H-1,2,3-triazole-4-carboxamide]
melting point: 129 °C

CCOC(=O)c1sc(NC(=O)c2nnn(Cc3ccc(Cl)c(Cl)c3)c2C)nc1C(F)(F)F [Example 9, Ethyl 2-[({1-[(3,4-dichlorophenyl)methyl]-5-methyl-1H-1,2,3-triazol-4-yl}carbonyl)amino]-4-(trifluoromethyl)-1,3-thiazole-5-carboxylate]
melting point: 155 °C

Cc1c(C(=O)Nc2ncc(C(=O)NCCC(C)C)s2)nnn1Cc1ccc(Cl)c(Cl)c1 [Example 23]
melting point: 259.3 °C

Cc1nc(NC(=O)c2nnn(Cc3ccc(Cl)c(Cl)c3)c2C)sc1CO [Example 41, 1-[(3,4-Dichlorophenyl)methyl]-N-[5-(hydroxymethyl)-4-methyl-1,3-thiazol-2-yl]-5-methyl-1H-1,2,3-triazole-4-carboxamide]
melting point: 161.8 °C

Cc1nc(NC(=O)c2nnn(Cc3ccc(Cl)c(Cl)c3)c2C)sc1C(=O)N(C)C (as salt: hydrochloride) [Example 28, 1-[(3,4-Dichlorophenyl)methyl]-N-{5-[(dimethylamino)carbonyl]-4-methyl-1,3-thiazo1-2-yl}-5-methyl-1H-1,2,3-triazole-4-carboxamide]
melting point: 144 °C

COc1ccc2nc(C(=O)Nc3nnn(Cc4ccc(Cl)c(Cl)c4)c3C)sc2c1 [Example 45, N-{1-[(3,4-Dichlorophenyl)methyl]-5-methyl-1H-1,2,3-triazol-4-yl}-6-(methyloxy)-1,3-benzothiazole-2-carboxamide]
melting point: 176 °C

COC(=O)c1cnc(NC(=O)c2nnn(Cc3ccc(Cl)c(Cl)c3)c2C)s1 [Example 4, Methyl 2-[({1-[(3,4-dichlorophenyl)methyl]-5-methyl-1H-1,2,3-triazol-4-yl}carbonyl)amino]-1,3-thiazole-5-carboxylate]
melting point: 212 °C

Cc1c(C(=O)Nc2ncc(C(=O)N(C)C)s2)nnn1Cc1ccc(Cl)c(Cl)c1 [Example 30, 1-[(3,4-Dichlorophenyl)methyl]-N-{5-[(dimethylamino)carbonyl]-1,3-thiazol-2-yl}-5-methyl-1H-1,2,3-triazole-4-carboxamide]
melting point: 304.9 °C

COC(=O)c1ccc(NC(=O)c2nnn(Cc3ccc(Cl)c(Cl)c3)c2C)nc1 [Example 14, Methyl 6-[({1-[(3,4-dichlorophenyl)methyl]-5-methyl-1H-1,2,3-triazol-4-yl}carbonyl)amino]-3-pyridinecarboxylate]
melting point: 179 °C

CNC(=O)c1cnc(NC(=O)c2nnn(Cc3ccc(Cl)c(Cl)c3)c2C)s1 [Example 29, 1-[(3,4-Dichlorophenyl)methyl]-5-methyl-N-{5-[(methylamino)carbonyl]-1,3-thiazol-2-yl}-1H-1,2,3-triazole-4-carboxamide]
melting point: 335.6 °C

CNC(=O)c1sc(NC(=O)c2cn(Cc3ccc(Cl)c(Cl)c3)nn2)nc1C [Example 34, 1-[(3,4-Dichlorophenyl)methyl]-N-{4-methyl-5-[(methylamino)carbonyl]-1,3-thiazol-2-yl}-1H-1,2,3-triazole-4-carboxamide]
melting point: 210.4 °C

COC(=O)Cc1csc(NC(=O)c2nnn(Cc3ccc(Cl)c(Cl)c3)c2C)n1 [Example 8, Methyl {2-[({1-[(3,4-dichlorophenyl)methyl]-5-methyl-1H-1,2,3-triazol-4-yl}carbonyl)amino]-1,3-thiazol-4-yl}acetate]
melting point: 158 °C

Cc1c(C(=O)Nc2cc(CO)ccn2)nnn1Cc1ccc(Cl)c(Cl)c1 [Example 44, 1-[(3,4-Dichlorophenyl)methyl]-N-[4-(hydroxymethyl)-2-pyridinyl]-5-methyl-1H-1,2,3-triazole-4-carboxamide]
melting point: 191 °C

Cc1c(C(=O)Nc2ncc(C(=O)NCCO)s2)nnn1Cc1ccc(Cl)c(Cl)c1 [Example 31, 1-[(3,4-Dichlorophenyl)methyl]-N-(5-{[(2-hydroxyethyl)-amino]carbonyl}-1,3-thiazol-2-yl)-5-methyl-1H-1,2,3-triazole-4-carboxamide]
melting point: 260.4 °C

Cc1nc(NC(=O)c2nnn(Cc3ccc(Cl)c(Cl)c3)c2C)sc1C [Example 10, 1-[(3,4-Dichlorophenyl)methyl]-N-(4,5-dimethyl-1,3-thiazol-2-yl)-5-methyl-1H-1,2,3-triazole-4-carboxamide]
melting point: 210.4 °C

Cc1c(C(=O)Nc2nc3[nH]c(=O)[nH]c(=O)c3s2)nnn1Cc1ccc(Cl)c(Cl)c1
melting point: 279.9 °C

Cc1nc(NC(=O)c2nnn(Cc3ccc(Cl)c(Cl)c3)c2C)sc1C(=O)NCCO [Example 27, 1-[(3,4-Dichlorophenyl)methyl]-N-(5-{[(2-hydroxyethyl)-amino]carbonyl}-4-methyl-1,3-thiazol-2-yl)-5-methyl-1H-1,2,3-triazole-4-carboxamide]
melting point: 166 °C

Cc1nc(NC(=O)c2nnn(Cc3ccc(Cl)c(Cl)c3)c2C)sc1C(=O)NCCC(C)C [Example 19, 1-[(3,4-Dichlorophenyl)methyl]-5-methyl-N-(4-methyl-5-{[(3-methylbutyl)amino]carbonyl}-1,3-thiazol-2-yl)-1H-1,2,3-triazole-4-carboxamide]
melting point: 174.3 °C

Cc1nnc(NC(=O)c2nnn(Cc3ccc(Cl)c(Cl)c3)c2C)o1 [Example 6, 1-[(3,4-Dichlorophenyl)methyl]-5-methyl-N-(5-methyl-1,3,4-oxadiazol-2-yl)-1H-1,2,3-triazole-4-carboxamide]
melting point: 192.2 °C

Cc1nc(NC(=O)c2nnn(Cc3ccc(Cl)c(Cl)c3)c2C)sc1C(=O)NCCN(C)C.Cl
melting point: 121 °C

From patent publication US8207204B2, “Triazole derivatives as SCD inhibitors” (GlaxoSmithKline LLC, priority 2007, dated 2012)
